Reference: patent US11497747B2, “Compositions and methods for treating lung injuries associated with SARS-CoV-2 infections” (priority 2020, dated 2022)

Legend:
MAP3K2/MAP3K3 [1] = test: MAP3K2/MAP3K3-mediated phosphorylation of p47phox; assay type: biochemical
acute lung injury (ALI) [2] = test: mouse ALI/ARDS models (acid-induced direct insult, LPS-induced indirect insult); assay type: in vivo; conditions: dependent on MAP3K2/3 and ROS production
MAP3K2/MAP3K3 [3] = conditions: p47phox substrate; cited from earlier work
MAP3K2/MAP3K3 [4] = conditions: MEK5 substrate; cited from earlier work
neutrophils = conditions: cited from earlier work
[5] = in vivo; cited from earlier work
[6] = cited from earlier work
patients = conditions: cited from earlier work
[7] = tested on: coronavirus (Murine Hepatitis Virus Strain 1, MHV-1) induced mouse lung injury model; test: survival and body weight loss in mouse coronavirus induced acute lung injury model; conditions: 3 mg/kgbw retro-orbital once daily for 5 days since 24 hr after virus inoculation
[8] = tested on: coronavirus (Murine Hepatitis Virus Strain 1, MHV-1) induced mouse lung injury model; test: pulmonary permeability (FITC-albumin in BAL) in mouse coronavirus induced acute lung injury model
acute lung injury (ALI) [9] = conditions: cited from earlier work

Compound	affinity as p47phox substrate-specific inhibitor for MAP3K2 and 3 (MAP3K2/MAP3K3 [1])	ameliorating ALI in the two mouse ALI/ARDS models (acute lung injury (ALI) [2])	inhibition of MAP3K2/MAP3K3-mediated phosphorylation of p47phox (MAP3K2/MAP3K3 [3])	inhibition of other substrates of MAP3K2/MAP3K3 such as MEK5 (MAP3K2/MAP3K3 [4])	ROS levels (neutrophils)	bioavailability [5]	half-life [5]	protein binding [6]	ILD/pneumonitis reported in patients in the clinical trials (patients; clinical trials)	patients who developed a pneumothorax (patients; randomized RCC trial)	pneumothorax occurrence (patients; randomized STS trial (8/240))	survival rate ([7]; FIG. 6)	body weight loss ([7]; FIG. 7)	pulmonary permeability ([8]; 2 doses at 3 mg/kgbw retro-orbital, 24 and 33 h after 6000 PFU MHV-1, FIG. 2)	pulmonary permeability ([8]; 3 doses at 3 mg/kgbw retro-orbital, 6, 21 and 32 h after 5000 PFU MHV-1, FIG. 1)	pulmonary permeability ([8]; one dose 3 mg/kgbw retro-orbital at 24 hr after virus inoculation, FIG. 3)	pulmonary permeability ([8]; one dose 3 mg/kgbw retro-orbital at 48 hr after virus inoculation, FIG. 4)	pulmonary permeability ([8]; one dose 3 mg/kgbw retro-orbital at 72 hr after virus inoculation, FIG. 5)	reduction of ALI in mouse models (acute lung injury (ALI) [9])
5-({4-[(2,3-Dimethyl-2H-indazol-6-yl)methylamino]pyrimidin-2-yl}amino)-2-methylbenzenesulfonamide [pazopanib]	low nanomolar	effective in ameliorating ALI	low nM levels	μM levels	elevates ROS levels	14-21%	30.9 to 31.9 h	> 99.5%	0.1 % of patients	[t]wo of 290	3%	does not affect	does not affect	significantly reduce	significantly reduce	significantly reduce	significantly reduce	negligible effect	–
Cc1ccc(NC(=O)c2ccc(CN3CCN(C)CC3)cc2)cc1Nc1nccc(-c2cccnc2)n1 [imatinib]	–	–	do not inhibit	–	–	–	–	–	–	–	–	–	–	–	–	–	–	–	–
COC(=O)c1ccc2c(c1)NC(=O)/C2=C(\Nc1ccc(N(C)C(=O)CN2CCN(C)CC2)cc1)c1ccccc1 [nintedanib, Methyl (3Z)-3-{[(4-{methyl[(4-methylpiperazin-1-yl)acetyl]amino}phenyl)amino](phenyl)methylidene}-2-oxo-2,3-dihydro-1H-indole-6-carboxylate]	–	–	also inhibits	–	–	–	–	–	–	–	–	–	–	–	–	–	–	–	has been shown to reduce ALI
